Test results from patent US10383847B2 (priority 2012, dated 2019).
Like-named read-outs stand apart in the source and are kept apart here.

What was measured:
HL-60 cells = settings: cited from earlier work
[1] = biological target: glycogen synthase kinase-3β (GSK-3β) (Homo sapiens, UniProt P49841); settings: cited from earlier work
[2] = Ames; cited from earlier work
ECV304 [3] = settings: cited from earlier work
HUVEC [4] = settings: cited from earlier work
AML NOD/SCID model = settings: in vivo; cited from earlier work
NB4 = settings: AML; cited from earlier work
Lewis lung sarcoma = settings: in vivo; cited from earlier work
primary AML = settings: cited from earlier work
primary AML cells = settings: cited from earlier work
cytochrome P450 2C8 = cytochrome P450 2C8 (Homo sapiens, UniProt P10632); settings: cited from earlier work
patients = settings: cited from earlier work
[5] = system: uridine glucuronyltransferases (UGT); settings: direct conjugation without initial cytochrome P450 oxidation, more polar metabolites; cited from earlier work
Jurkat cells = settings: inducing phosphorylation of c-Myb; cited from earlier work
[6] = system: HT-29 colorectal xenografts; settings: in vivo; cited from earlier work
[7] = system: chronic myelogenous leukemia (CML) patients; settings: cited from earlier work
[8] = system: Walker 256 carcino-sarcoma; settings: in vivo; cited from earlier work
W256 cells = settings: cited from earlier work
murine cancer models = settings: mouse, in vivo; cited from earlier work
rats = settings: up to 400 mg/kg/d p.o. for 30 days; cited from earlier work
HT29 = settings: colorectal cancer; cited from earlier work
cytochrome P450 1A2 [9] = biological target: T1, cytochrome P450 1A2 (Homo sapiens, UniProt P05177); settings: by oxidation; cited from earlier work
HL-60 = settings: AML; cited from earlier work
cytochrome P450 2C19 = cytochrome P450 2C19 (Homo sapiens, UniProt P33261); settings: by oxidation; cited from earlier work
VCAM-1 = settings: cited from earlier work
[10] = system: malignant cell lines, particularly AML cell lines (MV 4-11, myeloid cell lines); experiment: viability of cancer cell lines after meisoindigo treatment; assay type: cell-based; settings: 0.1-100 μM, 24 and 48 hours
Procedure: Viability at 48 hours is shown by (♦); viability at 24 hours is shown by (▪).

HL-60 myeloid cells = settings: cited from earlier work
ECV304 [11] = settings: cited from earlier work; remark: listed apart in the source
AML cell lines = settings: cited from earlier work
NEK9 = biological target: T2, NEK9 (Homo sapiens, UniProt Q8TD19); experiment: competition binding kinase scan
T2 construct: DNA tag / T7 phage fusion; made in house; host or cells: T7 phage in E. coli (BL21-derived) or HEK-293
Procedure: (§1) The scanning procedure is based on a competition binding assay that quantitatively measures the ability of a compound to compete with an immobilized, active-site directed ligand. The assay is performed by combining three components: DNA-tagged kinase; immobilized ligand; and a test compound. The ability of the test compound to compete with the immobilized ligand is measured via quantitative PCR of the DNA tag. This procedure is described in T. A. Carter et al., “Inhibition of Drug-Resistant Mutants of ABL, KIT, and EGF Receptor Kinases,” Proc. Natl. Acad. Sci. USA 102: 11011-11016 (2005), incorporated herein by this reference.
(§2) Kinase assays were carried out as follows: For most assays, kinase-tagged T7 phage strains were grown in parallel in 24-well blocks in an Escherichia coli host derived from the BL21 strain. E. coli were grown to log-phase and infected with T7 phage from a frozen stock (multiplicity of infection=0.4) and incubated with shaking at 32° C. until lysis (90-150 minutes). The lysates were centrifuged (6,000×g) and filtered (0.2 μm) to remove cell debris. The remaining kinases were produced in HEK-293 cells and subsequently tagged with DNA for qPCR detection. Streptavidin-coated magnetic beads were treated with biotinylated small molecule ligands for 30 minutes at room temperature to generate affinity resins for kinase assays. The liganded beads were blocked with excess biotin and washed with blocking buffer (SeaBlock (Pierce), 1% BSA, 0.05% Tween 20, 1 mM DTT) to remove unbound ligand and to reduce nonspecific phage binding. Binding reactions were assembled by combining kinases, liganded affinity beads, and test compounds in 1× binding buffer (20% SeaBlock, 0.17×PBS, 0.05% Tween 20, 6 mM DTT). Test compounds were prepared as 40×stocks in 100% DMSO and directly diluted into the assay. All reactions were performed in polypropylene 384-well plates in a final volume of 0.04 mL. The assay plates were incubated at room temperature with shaking for 1 hour and the affinity beads were washed with wash buffer (1×PBS, 0.05% Tween 20). The beads were then re-suspended in elution buffer (1×PBS, 0.05% Tween 20, 0.5 μM non-biotinylated affinity ligand) and incubated at room temperature with shaking for 30 minutes. The kinase concentration in the eluates was measured by qPCR.
(§3) The compounds were screened at the requested concentrations, and results for primary screen binding interactions were reported as “% Ctrl,” where lower numbers indicate stronger hits (i.e., an increased degree of inhibition of kinase activity) as follows (Equation (1)): […]

STK25 = biological target: T3, STK25 (Homo sapiens, UniProt O00506); experiment: competition binding kinase scan; settings: FIGS. 4 and 6
T3 construct: DNA tag / T7 phage fusion; made in house; host or cells: T7 phage in E. coli (BL21-derived) or HEK-293
Procedure: as §1, §2, §3

ERBB3 = biological target: T4, ERBB3 (Homo sapiens, UniProt P21860); experiment: competition binding kinase scan; settings: FIGS. 4 and 6
T4 construct: DNA tag / T7 phage fusion; made in house; host or cells: T7 phage in E. coli (BL21-derived) or HEK-293
Procedure: as §1, §2, §3

[12] = Chromabs; cited from earlier work
[13] = system: human myeloblastic leukemic cells; settings: cited from earlier work
HUVEC [14] = settings: cited from earlier work; remark: listed apart in the source
dogs = settings: 10 mg/kg/d p.o. for 6 months; cited from earlier work
AML cells = settings: DKO insensitive to chemotherapy; cited from earlier work
U937 = settings: AML; cited from earlier work
VEGF = settings: cited from earlier work
cytochrome P450 1A2 [15] = biological target: T1, cytochrome P450 1A2; settings: cited from earlier work
[16] = system: hepatic cytochrome P450 (CYP); settings: hepatic CYP-mediated; cited from earlier work
[17] = system: HT-29 colorectal cell lines; settings: cited from earlier work
K562 = settings: CML; cited from earlier work
K562 cells = settings: cited from earlier work

T1 sequence (P05177 whole entry, species assumed): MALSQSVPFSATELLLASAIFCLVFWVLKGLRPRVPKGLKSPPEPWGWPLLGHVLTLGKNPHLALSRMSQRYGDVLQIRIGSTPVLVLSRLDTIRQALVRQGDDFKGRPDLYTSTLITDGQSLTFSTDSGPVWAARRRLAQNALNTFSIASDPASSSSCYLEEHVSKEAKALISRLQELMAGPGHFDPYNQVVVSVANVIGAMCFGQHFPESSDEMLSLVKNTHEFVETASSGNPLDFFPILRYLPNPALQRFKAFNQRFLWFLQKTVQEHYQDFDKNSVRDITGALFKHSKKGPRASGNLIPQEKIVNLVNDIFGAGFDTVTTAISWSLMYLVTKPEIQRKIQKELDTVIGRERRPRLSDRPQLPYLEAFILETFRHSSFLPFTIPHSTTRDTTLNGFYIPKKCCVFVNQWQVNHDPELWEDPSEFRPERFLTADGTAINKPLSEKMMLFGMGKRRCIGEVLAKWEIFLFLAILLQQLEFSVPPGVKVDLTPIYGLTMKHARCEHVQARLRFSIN
T2 sequence (Q8TD19 whole entry, the tested form may be a part): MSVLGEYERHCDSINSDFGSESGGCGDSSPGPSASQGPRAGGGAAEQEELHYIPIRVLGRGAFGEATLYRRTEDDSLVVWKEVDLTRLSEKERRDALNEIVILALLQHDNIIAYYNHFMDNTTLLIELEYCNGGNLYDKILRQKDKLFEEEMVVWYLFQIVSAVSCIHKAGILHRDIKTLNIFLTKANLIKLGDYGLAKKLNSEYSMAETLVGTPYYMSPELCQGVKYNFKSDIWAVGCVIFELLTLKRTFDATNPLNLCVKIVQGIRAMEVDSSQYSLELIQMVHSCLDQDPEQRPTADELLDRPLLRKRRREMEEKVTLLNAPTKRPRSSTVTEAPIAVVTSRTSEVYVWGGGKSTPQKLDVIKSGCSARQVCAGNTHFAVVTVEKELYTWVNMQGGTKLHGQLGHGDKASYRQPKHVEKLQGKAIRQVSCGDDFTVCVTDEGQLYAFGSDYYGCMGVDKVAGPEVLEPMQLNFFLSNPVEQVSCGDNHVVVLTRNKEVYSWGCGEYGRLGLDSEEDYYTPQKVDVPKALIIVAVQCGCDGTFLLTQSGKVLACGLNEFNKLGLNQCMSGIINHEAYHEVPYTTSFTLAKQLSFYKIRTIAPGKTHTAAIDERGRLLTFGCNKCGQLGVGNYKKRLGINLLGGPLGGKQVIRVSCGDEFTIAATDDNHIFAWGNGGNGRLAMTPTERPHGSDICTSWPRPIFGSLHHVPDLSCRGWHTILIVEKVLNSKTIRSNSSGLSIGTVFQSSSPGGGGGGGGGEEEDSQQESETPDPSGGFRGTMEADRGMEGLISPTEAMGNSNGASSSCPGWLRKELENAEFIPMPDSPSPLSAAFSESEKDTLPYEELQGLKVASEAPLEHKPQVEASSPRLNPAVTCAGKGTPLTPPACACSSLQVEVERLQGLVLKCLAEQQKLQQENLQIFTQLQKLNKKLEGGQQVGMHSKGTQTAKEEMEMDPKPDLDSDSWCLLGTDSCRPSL
T4 sequence (P21860 20-1342): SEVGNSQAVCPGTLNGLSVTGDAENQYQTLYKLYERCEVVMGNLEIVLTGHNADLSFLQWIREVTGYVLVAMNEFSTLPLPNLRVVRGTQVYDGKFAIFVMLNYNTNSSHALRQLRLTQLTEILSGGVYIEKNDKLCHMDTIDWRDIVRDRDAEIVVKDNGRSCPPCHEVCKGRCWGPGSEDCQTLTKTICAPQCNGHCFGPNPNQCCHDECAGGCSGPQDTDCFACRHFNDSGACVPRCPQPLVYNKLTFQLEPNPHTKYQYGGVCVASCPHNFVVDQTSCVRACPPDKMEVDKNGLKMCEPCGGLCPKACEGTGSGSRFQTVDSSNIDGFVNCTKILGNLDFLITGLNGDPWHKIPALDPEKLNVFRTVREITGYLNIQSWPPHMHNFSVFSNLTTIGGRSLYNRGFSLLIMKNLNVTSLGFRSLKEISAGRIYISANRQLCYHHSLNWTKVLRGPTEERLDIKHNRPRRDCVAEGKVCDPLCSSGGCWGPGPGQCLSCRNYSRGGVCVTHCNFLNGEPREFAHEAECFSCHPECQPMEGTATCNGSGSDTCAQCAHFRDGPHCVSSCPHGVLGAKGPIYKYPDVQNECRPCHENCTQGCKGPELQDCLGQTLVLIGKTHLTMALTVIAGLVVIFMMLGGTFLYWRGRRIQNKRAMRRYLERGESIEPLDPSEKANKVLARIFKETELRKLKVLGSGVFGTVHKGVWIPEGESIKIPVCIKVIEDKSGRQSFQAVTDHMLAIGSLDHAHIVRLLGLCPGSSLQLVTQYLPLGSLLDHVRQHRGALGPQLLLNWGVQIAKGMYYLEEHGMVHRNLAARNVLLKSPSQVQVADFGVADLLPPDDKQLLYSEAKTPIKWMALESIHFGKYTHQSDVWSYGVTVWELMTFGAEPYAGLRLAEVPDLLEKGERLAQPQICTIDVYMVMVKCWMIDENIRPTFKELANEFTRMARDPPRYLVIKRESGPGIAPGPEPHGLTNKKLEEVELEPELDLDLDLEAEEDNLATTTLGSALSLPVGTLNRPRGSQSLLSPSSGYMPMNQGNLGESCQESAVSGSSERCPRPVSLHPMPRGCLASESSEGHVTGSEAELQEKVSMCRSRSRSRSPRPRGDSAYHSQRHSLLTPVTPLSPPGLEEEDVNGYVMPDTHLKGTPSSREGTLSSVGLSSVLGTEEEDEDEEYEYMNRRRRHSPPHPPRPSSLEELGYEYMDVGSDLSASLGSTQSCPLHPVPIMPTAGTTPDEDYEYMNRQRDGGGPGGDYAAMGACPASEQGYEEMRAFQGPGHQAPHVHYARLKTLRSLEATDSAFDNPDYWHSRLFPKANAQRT
Chain of glycogen synthase kinase-3β (GSK-3β) (P49841 whole entry, species assumed): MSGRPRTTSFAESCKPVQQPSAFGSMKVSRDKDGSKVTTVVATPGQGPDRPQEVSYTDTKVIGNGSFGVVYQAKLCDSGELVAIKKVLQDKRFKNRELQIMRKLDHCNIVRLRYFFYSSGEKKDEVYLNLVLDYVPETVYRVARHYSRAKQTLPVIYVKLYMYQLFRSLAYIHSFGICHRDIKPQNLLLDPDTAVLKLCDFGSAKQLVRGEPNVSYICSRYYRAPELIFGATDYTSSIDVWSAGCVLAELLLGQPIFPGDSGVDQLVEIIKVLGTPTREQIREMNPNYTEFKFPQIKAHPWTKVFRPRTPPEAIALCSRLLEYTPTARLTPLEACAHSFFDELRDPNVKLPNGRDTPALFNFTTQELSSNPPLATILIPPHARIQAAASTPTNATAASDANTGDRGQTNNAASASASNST
Chain of cytochrome P450 2C8 (P10632 whole entry): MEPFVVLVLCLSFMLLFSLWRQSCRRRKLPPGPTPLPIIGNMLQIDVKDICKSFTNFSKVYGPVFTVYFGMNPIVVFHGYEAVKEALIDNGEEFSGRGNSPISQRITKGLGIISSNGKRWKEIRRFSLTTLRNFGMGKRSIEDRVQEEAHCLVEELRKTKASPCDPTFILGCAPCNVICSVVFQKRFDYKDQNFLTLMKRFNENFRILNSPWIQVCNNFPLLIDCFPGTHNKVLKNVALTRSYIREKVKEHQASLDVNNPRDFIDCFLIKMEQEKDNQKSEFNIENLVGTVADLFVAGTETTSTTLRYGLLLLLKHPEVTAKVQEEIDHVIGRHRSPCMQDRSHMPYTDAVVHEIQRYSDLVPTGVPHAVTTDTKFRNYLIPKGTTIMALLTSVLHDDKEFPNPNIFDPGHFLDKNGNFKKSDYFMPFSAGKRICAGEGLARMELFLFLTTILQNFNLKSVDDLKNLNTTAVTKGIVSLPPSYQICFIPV
Chain of cytochrome P450 2C19 (P33261 whole entry): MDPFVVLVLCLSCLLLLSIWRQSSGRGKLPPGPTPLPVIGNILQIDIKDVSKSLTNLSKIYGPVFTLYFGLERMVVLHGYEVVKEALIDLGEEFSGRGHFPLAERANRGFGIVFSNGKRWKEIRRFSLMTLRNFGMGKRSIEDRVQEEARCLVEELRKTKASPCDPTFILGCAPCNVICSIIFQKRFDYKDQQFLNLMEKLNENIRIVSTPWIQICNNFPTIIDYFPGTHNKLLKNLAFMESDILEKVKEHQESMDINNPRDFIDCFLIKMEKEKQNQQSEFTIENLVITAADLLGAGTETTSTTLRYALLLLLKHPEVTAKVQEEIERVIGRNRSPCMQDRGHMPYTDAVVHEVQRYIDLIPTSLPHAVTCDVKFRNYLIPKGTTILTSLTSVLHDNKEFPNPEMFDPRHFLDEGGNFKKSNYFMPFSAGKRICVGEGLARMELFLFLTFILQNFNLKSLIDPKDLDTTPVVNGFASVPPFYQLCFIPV
T3 sequence (O00506 whole entry, the tested form may be a part): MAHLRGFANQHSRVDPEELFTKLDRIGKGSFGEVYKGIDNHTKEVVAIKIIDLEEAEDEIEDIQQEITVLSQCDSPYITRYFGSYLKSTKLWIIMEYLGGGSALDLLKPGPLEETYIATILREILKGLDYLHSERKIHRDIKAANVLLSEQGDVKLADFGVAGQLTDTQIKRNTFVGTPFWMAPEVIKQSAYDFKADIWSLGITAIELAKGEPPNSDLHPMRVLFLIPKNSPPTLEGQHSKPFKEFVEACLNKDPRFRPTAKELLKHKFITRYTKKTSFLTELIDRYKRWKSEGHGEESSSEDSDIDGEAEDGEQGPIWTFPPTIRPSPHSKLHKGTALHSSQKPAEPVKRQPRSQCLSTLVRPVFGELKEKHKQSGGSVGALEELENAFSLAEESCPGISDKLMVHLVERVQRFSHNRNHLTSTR

SMILES: CN1C(=O)/C(=C2/C(=O)Nc3ccccc32)c2ccccc21 [Meisoindigo, 3-(1,2-dihydro-2-oxo-3H-indol-3-ylidene)-1,3-dihydro-1-methyl-2H-indol-2-one]
- c-myc (HL-60 cells): decreases
- β-catenin (HL-60 cells): decreases
- concentration at which GSK-3β is inhibited [1]: 5 to 50 nM
- genotoxicity [2]: not genotoxic
- activity against cells (ECV304 [3]): activity
- activity against cells (HUVEC [4]): activity
- spleen size (AML NOD/SCID model): dose-dependent spleen size reduction
- activity against cells (NB4): activity
- efficacy in model (Lewis lung sarcoma): effective
- activity against cells (primary AML): activity
- Bcl-2 (primary AML cells): downregulation
- p21 (primary AML cells): upregulation
- p27 (primary AML cells): upregulation
- inhibition of enzyme, concentration (cytochrome P450 2C8): low micromolar concentrations
- cardiac, hepatic, or renal adverse effects (patients; patients): no cardiac, hepatic, or renal adverse effects
- mild nausea and vomiting (patients; patients, spontaneously disappeared in two weeks): 30%
- tolerability (patients; several patient populations, single agent or in combination with chemotherapy): well tolerated
- metabolism by enzyme [5]: metabolized
- Ahi-1 (Jurkat cells): upregulation
- efficacy in model [6]: effective
- complete hematologic response, patients ([7]; 50-200 mg/d p.o.): 33%
- partial hematologic response, patients ([7]; 50-200 mg/d p.o.): 58%
- reduction of leukocyte count, median ([7]; 50-200 mg/d p.o.): 31 days
- reduction of splenomegaly, median ([7]; 50-200 mg/d p.o.): 25 days
- effect of combination with hydroxyurea ([7]; with hydroxyurea): synergistic effect
- efficacy in model [8]: effective
- DNA and RNA synthesis (W256 cells): inhibition
- efficacy in model (murine cancer models): effective
- tolerability (rats): well tolerated
- activity against cells (HT29): activity
- metabolism by enzyme (cytochrome P450 1A2 [9]): metabolized
- activity against cells (HL-60): activity
- metabolism by enzyme (cytochrome P450 2C19): metabolized
- VCAM-1 (VCAM-1): decreased
- killing of malignant cell lines (viability) [10]: effective in killing
- cleavage of pro-caspase 3, 8, 9 and PARP (HL-60 myeloid cells): stimulates the cleavage
- apoptosis (ECV304 [11]): apoptosis
- cell cycle specific effect (AML cell lines): arrest in G(O)/G1
- kinase inhibition in screen (NEK9; FIG. 6): significant inhibition
- binding to kinase (NEK9; FIGS. 4 and 6): strongest binding
- binding to kinase (STK25): significant binding
- binding to kinase (ERBB3): significant binding
- genotoxicity [12]: not genotoxic
- c-myb gene expression [13]: downregulation
- differentiation [13]: promotes differentiation
- tubule formulation (HUVEC [14]): decreased
- tolerability (dogs): well tolerated
- Bak (AML cells): upregulation
- Bax (AML cells): upregulation
- activity against cells (U937): activity
- VEGF protection (VEGF): decreased
- inhibition of enzyme, concentration (cytochrome P450 1A2 [15]): low micromolar concentrations
- metabolic routes [16]: N-demethylation and mono ring hydroxylation
- cell cycle specific effect [17]: G2/M arrest
- activity against cells (K562): activity
- mechanism of apoptosis (K562 cells): novel caspase-dependent pathway
